Measurements published in patent US4939122A, “Lipophile derivatives of muramylpeptides having properties of activating macrophages and compositions containing them” (priority 1984, dated 1990).
Where “and” joins values, the source holds several entries; their conditions need not be identical. Identical values can stand only once. Like-named read-outs stand apart in the source and are kept apart here.

What was measured:
Klebsiella pneumoniae = assay: Anti-infectious activity in Swiss mice infected i.v. with Klebsiella pneumoniae; format: in vivo; details: for protective activity against lethal Klebsiella pneumoniae infection (in words): summary of observations
Method: In the Tables VII to XI are indicated the conditions in which the substances were administered and, according to the considered cases, the number of mice surviving 10 or 15 days later and the corresponding percentages of protection with respect to controls.

[1] = Retention of the muramylpeptide in liposomes incubated in MEM-FCS medium at 37° C.; format: physicochemical
Method: Liposomes produced under the same conditions, but with muramylpeptides labeled with tritium have enabled the following observations. […] The incorporation of the MDP-GDP and the stability of the latter, has also been verified in reaction tests with anti-MDP monoclonal antibodies. After incubation of these liposomes in the same medium at 37° C. for 72 hours, there is observed a constant agglutination of the liposomes with the antibody (95% of the liposome being agglutinated), this observation bearing witness to the practical absence of any loss of MDP-GDP. […] The leakage, if it was produced, would have been manifested by a decrease in the intensity of agglutination with time.

[2] = Pyrogenicity in rabbits (European Pharmacopoea); format: in vivo, rabbit; details: 1 mg/kg; groups of three rabits, individual animals
Excerpt: Certain of the compounds according to the invention show at relatively high doses, a certain pyrogenicity, whose impact is however reduced, taking into account the particularly higher therapeutic index from which they appear to benefit. This being the case, the muramylpeptides in which the group of modification by the two lipophile chains is fixed to the 6 position of the saccharide group, and of which the peptide chain is terminated by a glutamy-alpha-ester-gamma-amide group, are particularly advantageous by reason of their more reduced pyrogenicity. Testimony thereof is borne by comparative pyrogenicity measurements carried out on groups of three rabits with the two compounds more particularly studied, according to the procedure of the European Pharmacopoea, Vol. 2, 1971, pages 58-60. In fact, the following results are obtained, expressed by temperature observations observed in experimental animals to which had previously been administered 1 mg/kg of the compounds studied: for the MDP-GDP : 1°; 0.9° and 1° C.; for the 6 -0-GDP-MDPG-OnBu : 0.2°; 0.3° and 0.5° C.

bovine serumalbumin = assay: Adjuvant activity in the Swiss female mouse, passive hemagglutination titer; format: in vivo; details: for Primary response, passive hemagglutination titer: 100 micrograms with 500 micrograms of bovine serumalbumin at day 0, day 21, serums titrated in pools; for Secondary response, passive hemagglutination titer: booster of antigen alone at day 30, day 36, titrated separately
Method: At day 0, 100 micrograms of C474 were injected with 500 micrograms of bovine serumalbumin. At day 30, the animals received a booster of 100 micrograms of antigen alone. The following results were obtained:
The titers are expressed in Log 2 of the passive hemagglutination titer. At day 21, the serums were titrated in pools; at day 36, they were titrated separately.

Candida albicans = assay: Protection of mice infected by the venous route with Candida albicans; format: in vivo
[3] = test system: influenza virus suspension APR/8; format: in vivo; details: preventive, 0.1 mg per mouse
[4] = Table X, 100 μg i.v. at day -1, 10^4 K. pneumoniae
[5] = Table XI, 2 × 10^6 Candida albicans, muramylpeptide 100 μg/day/4 days i.v. (-4 to -1), amphotericin B 3 μg subcutaneously on the day of infection
[6] = Table XI, 2 × 10^6 Candida albicans, muramylpeptide 100 μg/day/4 days i.v., amphotericin B 3 μg subcutaneously
[7] = Table IX, 5 × 10^4 K. pneumoniae, Gentamicin 10 μg subcutaneously 2 hours after infection, MDP or MDP-GDP 30 μg intravenously 24 hours before
[8] = Table VII, aqueous suspension, 100 μg i.v. at day -1, 10^4 K. pneumoniae

Compound	Protection (%) (Klebsiella pneumoniae; [4])	Survival (15 d) (Klebsiella pneumoniae; [4])	retention of the muramylpeptide in the liposomes (in words) [1]	protective activity against lethal Klebsiella pneumoniae infection (in words) (Klebsiella pneumoniae)	Survival (10 d) (Candida albicans; [5])	Protection (%) (Klebsiella pneumoniae; [8])	Survival (15 d) (Klebsiella pneumoniae; [8])	also measured
6-O-(beta, gamma-dipalmitoyl-L-glycerol)-capryl -N-acetyl-muramyl-L-alanyl-D-glutamine-n-butyl ester [6-0-GDP-aminocaproyl-MDPG-OnBu]	56	9/16	Quite similar observations					
6-O-(beta, gamma-dipalmitoyl-L-glyceryl)-N-acetyl-muramyl-L-alanyl-D-glutamine-n-buty l-ester [6-0-GDP-MDPG-OnBu]			Quite similar observations	protective activity comparable				temperature observations (pyrogenicity) [2]: 0.2 °C and 0.3 °C and 0.5 °C; Primary response, passive hemagglutination titer (bovine serumalbumin): 2.64 Log 2; Secondary response, passive hemagglutination titer (bovine serumalbumin): 8.6 Log 2
C[C@@H]1[C@H](O)[C@@H](C)/C=C/C=C/C=C/C=C/C=C/C=C/C=C/[C@H](O[C@@H]2O[C@H](C)[C@@H](O)[C@H](N)[C@@H]2O)C[C@@H]2O[C@](O)(C[C@@H](O)C[C@@H](O)[C@H](O)CC[C@@H](O)C[C@@H](O)CC(=O)O[C@H]1C)C[C@H](O)[C@H]2C(=O)O [Amphotericin B, reference compound]					2/16			Protection (Candida albicans; [6]): 13
CCCCCCCCCCCCCCCC(=O)OCC(COC(=O)[C@H](C)NC(=O)CC[C@@H](NC(=O)[C@@H](C)NC(=O)[C@@H](C)O[C@H]1[C@H](O)[C@@H](CO)OC(O)[C@@H]1NC(C)=O)C(N)=O)OC(=O)CCCCCCCCCCCCCCC (stereo partly drawn) [MDP(D,D)-L-Ala-GDP, alpha (N-acetyl-muramyl-D-alanyl-D-isoglutaminyl-L-alanine) beta, gamma-dipalmitoyl-sn-glycerol]	25	6/16	Quite similar observations	although active, is less so than MDP-L-Ala-GDP				
CCCCCCCCCCCCCCCC(=O)OC[C@@H](COC(=O)CC[C@@H](NC(=O)[C@H](C)NC(=O)[C@@H](C)O[C@H]1[C@H](O)[C@@H](CO)OC(O)[C@@H]1NC(C)=O)C(N)=O)OC(=O)CCCCCCCCCCCCCCC (stereo partly drawn) [MDP-GDP, alpha (N-acetyl-muramyl-L-alanyl-D-isoglutamine), beta, gamma-dipalmitoyl-sn-glycerol]				protective activity comparable	3/16	65	32/48	Primary response, passive hemagglutination titer (bovine serumalbumin): 3.64 Log 2; Secondary response, passive hemagglutination titer (bovine serumalbumin): 10.27 Log 2; Protection (%) (Klebsiella pneumoniae; [7]): 16%; Survival (15 d) (Klebsiella pneumoniae; [7]): 4/24; protective activity when injected in liposomes (in words) (Klebsiella pneumoniae; in liposomes): the most active; Protection (Candida albicans; [6]): 19; Protection (Candida albicans; Table XII, aqueous suspension IOO μg × 4): 75%; Survival (10 d) (Candida albicans; Table XII, aqueous suspension IOO μg × 4, days -4, -3, -2, and -1, 10^6 Candida albicans): 6/8; activity against Candida (in words) (Candida albicans; in vivo): active; survival ([3]; orally): 56%; survival ([3]; subcutaneously): 44%
CCCCCCCCCCCCCCCC(=O)OCC(COC(=O)[C@H](C)NC(=O)CC[C@@H](NC(=O)[C@H](C)NC(=O)[C@@H](C)O[C@H]1[C@H](O)[C@@H](CO)OC(O)[C@@H]1NC(C)=O)C(N)=O)OC(=O)CCCCCCCCCCCCCCC (stereo partly drawn) [MDP-L-Ala-GDP, alpha (N-acetyl-muramyl-L-alanyl-D-isoglutaminyl-L-alanine), beta, gamma-dipalmitoyl-sn-glycerol]	63	12/16	Quite similar observations					
CCCCOC(=O)[C@@H](CCC(N)=O)NC(=O)[C@H](C)NC(=O)[C@@H](C)O[C@H]1[C@H](O)[C@@H](CO)OC(O)[C@@H]1NC(C)=O (some centres unmarked) [MDPG-OnBu, reference compound]						62.5	20/32	
Gentamicin [reference compound]								Protection (%) (Klebsiella pneumoniae; [7]): 21%; Survival (15 d) (Klebsiella pneumoniae; [7]): 5/24
alpha (N-acetyl-muramyl-D-alanyl-D-isoglutamine), beta, gamma-dipalmitoyl-sn-glycerol [MDP(D,D)-GDP]			Quite similar observations	protective activity comparable	0/16	83.3	20/24	
